Data taken from patent publication USRE42890E1, “Furazanobenzimidazoles” (Basilea Pharmaceutica AG, priority 2003, dated 2011).

System: HeLa
Assay: MTS proliferation assay, HeLa
Assay type: cell-based, human
Conditions: 72 h incubation, read-out: MTS proliferation assay IC 50 HeLa
Protocol: (§1) Cell lines are cultured in RPMI-1640 tissue culture medium containing either 5% or 10% fetal calf serum, 0.05 mM 2-mercaptoethanol, 2 mM glutamine and penicillin/streptomycin 50 μg/ml (complete medium) (Sigma, Buchs, Switzerland). General growth conditions are 37° C. and 7.5% CO2.
(§2) The following human cell lines (either EGFP transfected or not) are being used: HeLa (ATCC: CCL-2), KB (ATCC: CCL-17), MCF7 (ATCC: HTB-22), SK-BR-3 (ATCC: HTB-30), SK-Mel 1 (ATCC: HTB-67), SK-Mel 28 (ATCC: HTB-72), PC-3 (ATCC: CRL-1435), SW 480 (ATCC: CCL-228), NCl-H460 (ATCC: HTB-177), NCl-H1792 (ATCC: CRL-5895), HT1080 (ATCC: CCL-21), Jurkat (ATCC: TIB-152), Ramos (ATCC: CRL-1596), Raji (ATCC: CCL-86), H9 (ATCC: HTB-176), Hut78 (ATCC: TIB-161), K562 (ATCC: CCL 243), HL-60 (ATCC: CCL 240), U-87MG (ATCC: HTB-14), HepG2 (ATCC: HB-8065), U-2 OS (ATCC: HTB-96), Saos-2 (ATCC: HTB-85), U937 (ATCC: CRL 1593), Hs 578T (ATCC: HTB 126), HBL-100 (ATCC: HTB 124), Molt-4 (ATCC: CRL 1582).
(§3) The assay is performed in 96 well tissue culture plates. The cells (range: 1.5*10^3-10^4) are seeded out in 80 μl complete medium 24 h prior to compound treatment. The test compounds are added in 20 μl complete medium containing max 5% DMSO. The final compound concentrations in the assays are 10 μM, 3 μM, 1 μM and 0.3 μM, respectively. The assay plates are incubated for 72 h at culture conditions. The MTS reagent is prepared according to the manufacturer's protocol (Promega G1111). 20 μl MTS reagent are added to each well, the assay plates are quickly spun and incubated for another 3 h at culture conditions. Subsequently, the plates are shortly shaked and absorption measured with a microplate-reader at 492 nm.

Row | Compound | IC50 [µM]
1 | COc1cccc(C(Cn2c(-c3nonc3N)nc3ccccc32)=NO)c1 (mixture of isomers) [Example 24] | > 1
2 | CON=C(Cn1c(-c2nonc2N)nc2ccccc21)c1ccc(-c2ccccc2)cc1 (mixture of isomers) [Example 28] | > 1
3 | COc1cccc(C(=O)Cn2c(-c3nonc3N)nc3ccccc32)c1 [Example 23] | 0.1 to 1

System: MRC5
Assay: MTS proliferation assay, MRC5
Assay type: cell-based
Conditions: MRC5, 72 h incubation; read-out: MTS proliferation assay IC 50 MRC5
Protocol: as §1, §3

Row | Compound | IC50 [µM]
4 | COc1cccc(C(Cn2c(-c3nonc3N)nc3ccccc32)=NO)c1 (mixture of isomers) [Example 24] | > 1
5 | CON=C(Cn1c(-c2nonc2N)nc2ccccc21)c1ccc(-c2ccccc2)cc1 (mixture of isomers) [Example 28] | > 1
6 | COc1cccc(C(=O)Cn2c(-c3nonc3N)nc3ccccc32)c1 [Example 23] | 0.1 to 1

System: Jurkat
Assay: MTS proliferation assay, Jurkat
Assay type: cell-based, human
Conditions: 72 h incubation, read-out: MTS proliferation assay IC 50 Jurkat
Protocol: as §1, §2, §3

Row | Compound | IC50 [µM]
7 | COc1cccc(C(Cn2c(-c3nonc3N)nc3ccccc32)=NO)c1 (mixture of isomers) [Example 24] | > 1
8 | CON=C(Cn1c(-c2nonc2N)nc2ccccc21)c1ccc(-c2ccccc2)cc1 (mixture of isomers) [Example 28] | > 1
9 | COc1cccc(C(=O)Cn2c(-c3nonc3N)nc3ccccc32)c1 [Example 23] | 0.1 to 1

System: adherent cells or suspension cells
Assay: Hoechst 33342 nuclear staining (fraction of apoptotic nuclei)
Assay type: cell-based
Design: key: 0 relating to no activity; 1 relating to weak activity comprising less than 70% of the cells; score 2 relating to strong activity comprising more than 70% of the cells
Conditions: H460, conc 0.01 μm
Protocol: as §1
This assay is performed in 96 well tissue culture plates. Appropriate number of cells (adherent cells: 3-5*10^3, suspension cells: 8-10*10^3) are being seeded out in 80 μl complete medium. Adherent cells are incubated for 24 h for proper spreading out before addition of test compounds while suspension cells are immediately treated with test compounds after seeding out. The test compounds are added in 20 μl complete medium containing max 5% DMSO. […] After 24 h or 48 h incubation at culture conditions, 10 μl medium containing Hoechst 33342 dye (Sigma B-2261) at 2-5 μg/ml are added to each well. The assay plates are then further incubated for 30 minutes and subsequently analyzed with a standard inverted fluorescence microscope.
The readout allows the determination of the fraction of apoptotic nuclei as well as other morphological criteria specific for apoptosis as a function of the treatment. The following scores are used: 0 relating to no activity, 1 relating to weak activity comprising less than 70% of the cells and score 2 relating to strong activity comprising more than 70% of the cells.

Row | Compound | Hoechst 33342 nuclear staining score
10 | COc1cccc(C(Cn2c(-c3nonc3N)nc3ccccc32)=NO)c1 (mixture of isomers) [Example 24] | 0
11 | CON=C(Cn1c(-c2nonc2N)nc2ccccc21)c1ccc(-c2ccccc2)cc1 (mixture of isomers) [Example 28] | 0

Same assay, conditions: H460, conc 0.1 μm

Row | Compound | Hoechst 33342 nuclear staining score
12 | COc1cccc(C(Cn2c(-c3nonc3N)nc3ccccc32)=NO)c1 (mixture of isomers) [Example 24] | 0
13 | CON=C(Cn1c(-c2nonc2N)nc2ccccc21)c1ccc(-c2ccccc2)cc1 (mixture of isomers) [Example 28] | 0

Same assay, conditions: H460, conc 1 μm

Row | Compound | Hoechst 33342 nuclear staining score
14 | COc1cccc(C(Cn2c(-c3nonc3N)nc3ccccc32)=NO)c1 (mixture of isomers) [Example 24] | 0
15 | CON=C(Cn1c(-c2nonc2N)nc2ccccc21)c1ccc(-c2ccccc2)cc1 (mixture of isomers) [Example 28] | 0

Same assay, conditions: HeLa, conc 0.01 μm

Row | Compound | Hoechst 33342 nuclear staining score
16 | COc1cccc(C(Cn2c(-c3nonc3N)nc3ccccc32)=NO)c1 (mixture of isomers) [Example 24] | 0
17 | CON=C(Cn1c(-c2nonc2N)nc2ccccc21)c1ccc(-c2ccccc2)cc1 (mixture of isomers) [Example 28] | 0
18 | COc1cccc(C(=O)Cn2c(-c3nonc3N)nc3ccccc32)c1 [Example 23] | 0

Same assay, conditions: HeLa, conc 0.1 μm

Row | Compound | Hoechst 33342 nuclear staining score
19 | COc1cccc(C(Cn2c(-c3nonc3N)nc3ccccc32)=NO)c1 (mixture of isomers) [Example 24] | 0
20 | CON=C(Cn1c(-c2nonc2N)nc2ccccc21)c1ccc(-c2ccccc2)cc1 (mixture of isomers) [Example 28] | 0
21 | COc1cccc(C(=O)Cn2c(-c3nonc3N)nc3ccccc32)c1 [Example 23] | 0

Same assay, conditions: HeLa, conc 1 μm

Row | Compound | Hoechst 33342 nuclear staining score
22 | COc1cccc(C(Cn2c(-c3nonc3N)nc3ccccc32)=NO)c1 (mixture of isomers) [Example 24] | 0
23 | CON=C(Cn1c(-c2nonc2N)nc2ccccc21)c1ccc(-c2ccccc2)cc1 (mixture of isomers) [Example 28] | 0
24 | COc1cccc(C(=O)Cn2c(-c3nonc3N)nc3ccccc32)c1 [Example 23] | 2 (score 2 relating to strong activity comprising more than 70% of the cells)

Same assay, conditions: Jily, conc 0.01 μm

Row | Compound | Hoechst 33342 nuclear staining score
25 | COc1cccc(C(Cn2c(-c3nonc3N)nc3ccccc32)=NO)c1 (mixture of isomers) [Example 24] | 0
26 | CON=C(Cn1c(-c2nonc2N)nc2ccccc21)c1ccc(-c2ccccc2)cc1 (mixture of isomers) [Example 28] | 0

Same assay, conditions: Jily, conc 0.1 μm

Row | Compound | Hoechst 33342 nuclear staining score
27 | COc1cccc(C(Cn2c(-c3nonc3N)nc3ccccc32)=NO)c1 (mixture of isomers) [Example 24] | 0
28 | CON=C(Cn1c(-c2nonc2N)nc2ccccc21)c1ccc(-c2ccccc2)cc1 (mixture of isomers) [Example 28] | 0

Same assay, conditions: Jily, conc 1 μm

Row | Compound | Hoechst 33342 nuclear staining score
29 | COc1cccc(C(Cn2c(-c3nonc3N)nc3ccccc32)=NO)c1 (mixture of isomers) [Example 24] | 0
30 | CON=C(Cn1c(-c2nonc2N)nc2ccccc21)c1ccc(-c2ccccc2)cc1 (mixture of isomers) [Example 28] | 0

Same assay, conditions: Jurkat, conc 0.01 μm

Row | Compound | Hoechst 33342 nuclear staining score
31 | COc1cccc(C(Cn2c(-c3nonc3N)nc3ccccc32)=NO)c1 (mixture of isomers) [Example 24] | 0
32 | CON=C(Cn1c(-c2nonc2N)nc2ccccc21)c1ccc(-c2ccccc2)cc1 (mixture of isomers) [Example 28] | 0
33 | COc1cccc(C(=O)Cn2c(-c3nonc3N)nc3ccccc32)c1 [Example 23] | 0

Same assay, conditions: Jurkat, conc 0.1 μm

Row | Compound | Hoechst 33342 nuclear staining score
34 | COc1cccc(C(Cn2c(-c3nonc3N)nc3ccccc32)=NO)c1 (mixture of isomers) [Example 24] | 0
35 | CON=C(Cn1c(-c2nonc2N)nc2ccccc21)c1ccc(-c2ccccc2)cc1 (mixture of isomers) [Example 28] | 0
36 | COc1cccc(C(=O)Cn2c(-c3nonc3N)nc3ccccc32)c1 [Example 23] | 0

Same assay, conditions: Jurkat, conc 1 μm

Row | Compound | Hoechst 33342 nuclear staining score
37 | COc1cccc(C(Cn2c(-c3nonc3N)nc3ccccc32)=NO)c1 (mixture of isomers) [Example 24] | 0
38 | CON=C(Cn1c(-c2nonc2N)nc2ccccc21)c1ccc(-c2ccccc2)cc1 (mixture of isomers) [Example 28] | 0
39 | COc1cccc(C(=O)Cn2c(-c3nonc3N)nc3ccccc32)c1 [Example 23] | 2 (score 2 relating to strong activity comprising more than 70% of the cells)

Same assay, conditions: MRC5, conc 0.01 μm

Row | Compound | Hoechst 33342 nuclear staining score
40 | COc1cccc(C(Cn2c(-c3nonc3N)nc3ccccc32)=NO)c1 (mixture of isomers) [Example 24] | 0
41 | CON=C(Cn1c(-c2nonc2N)nc2ccccc21)c1ccc(-c2ccccc2)cc1 (mixture of isomers) [Example 28] | 0
42 | COc1cccc(C(=O)Cn2c(-c3nonc3N)nc3ccccc32)c1 [Example 23] | 0

Same assay, conditions: MRC5, conc 0.1 μm

Row | Compound | Hoechst 33342 nuclear staining score
43 | COc1cccc(C(Cn2c(-c3nonc3N)nc3ccccc32)=NO)c1 (mixture of isomers) [Example 24] | 0
44 | CON=C(Cn1c(-c2nonc2N)nc2ccccc21)c1ccc(-c2ccccc2)cc1 (mixture of isomers) [Example 28] | 0
45 | COc1cccc(C(=O)Cn2c(-c3nonc3N)nc3ccccc32)c1 [Example 23] | 0

Same assay, conditions: MRC5, conc 1 μm

Row | Compound | Hoechst 33342 nuclear staining score
46 | COc1cccc(C(Cn2c(-c3nonc3N)nc3ccccc32)=NO)c1 (mixture of isomers) [Example 24] | 0
47 | CON=C(Cn1c(-c2nonc2N)nc2ccccc21)c1ccc(-c2ccccc2)cc1 (mixture of isomers) [Example 28] | 0
48 | COc1cccc(C(=O)Cn2c(-c3nonc3N)nc3ccccc32)c1 [Example 23] | 0

Same assay, conditions: PBLs, conc 0.01 μm

Row | Compound | Hoechst 33342 nuclear staining score
49 | COc1cccc(C(Cn2c(-c3nonc3N)nc3ccccc32)=NO)c1 (mixture of isomers) [Example 24] | 0
50 | CON=C(Cn1c(-c2nonc2N)nc2ccccc21)c1ccc(-c2ccccc2)cc1 (mixture of isomers) [Example 28] | 0
51 | COc1cccc(C(=O)Cn2c(-c3nonc3N)nc3ccccc32)c1 [Example 23] | 0

Same assay, conditions: PBLs, conc 0.1 μm

Row | Compound | Hoechst 33342 nuclear staining score
52 | COc1cccc(C(Cn2c(-c3nonc3N)nc3ccccc32)=NO)c1 (mixture of isomers) [Example 24] | 0
53 | CON=C(Cn1c(-c2nonc2N)nc2ccccc21)c1ccc(-c2ccccc2)cc1 (mixture of isomers) [Example 28] | 0
54 | COc1cccc(C(=O)Cn2c(-c3nonc3N)nc3ccccc32)c1 [Example 23] | 0

Same assay, conditions: PBLs, conc 1 μm

Row | Compound | Hoechst 33342 nuclear staining score
55 | COc1cccc(C(Cn2c(-c3nonc3N)nc3ccccc32)=NO)c1 (mixture of isomers) [Example 24] | 0
56 | CON=C(Cn1c(-c2nonc2N)nc2ccccc21)c1ccc(-c2ccccc2)cc1 (mixture of isomers) [Example 28] | 0
57 | COc1cccc(C(=O)Cn2c(-c3nonc3N)nc3ccccc32)c1 [Example 23] | 0
